Source: US7067553B2, “Thiourea compounds and the pharmaceutical compositions containing the same” (Pacific Corporation, priority 2000, dated 2006)

Columns and labels:
vanilloid receptor = biological target: T1, vanilloid receptor (Rattus norvegicus, UniProt O35433); experiment: 45Ca influx test (calcium uptake) in cultured DRG neurons, capsaicin-stimulated; assay type: cell-based; conditions: neonatal SD rat DRG neurons; capsaicin 0.5 μM; 45Ca 10 μCi/ml; 10 min at room temperature; NR: no response
T1 construct: DRG nerve cells from the primary culture of 2–3 days were equilibrated; endogenous in cells; host or cells: primary culture of dorsal root ganglion neurons from neonatal SD rats
Procedure: 1) Separation of Spinal Dorsal Root Ganglia (DRG) in Newborn Rats and Primary Culture Thereof
Neonatal(2-day old or younger than 2-day old) SD rats were put in ice for 5 minutes to anesthetize and disinfected with 70% ethanol. DRG of all part of spinal cord were dissected (Wood et al., 1988, J. Neurosci. 8, pp3208–3220) and collected in DME/F12 medium to which 1.2 g/l sodium bicarbonate, 50 mg/l gentamycin were added. The DRG were incubated sequentially at 37° C. for 30 min in 200 U/ml collagenase and 2.5 mg/mil trypsin, separately. The ganglia were washed twice with DME/F12 medium supplemented with 10% horse serum, triturated through a fire-polished Pasteur pipette, filtered through Nitex 40 membrane to obtain single cell suspension. This was subjected to centrifugation, then re-suspended in cell culture medium at certain level of cell density. As the cell culture medium, DME/F12 medium supplemented with 10% horse serum, diluted 1:1 with identical medium conditioned by C6 glioma cells (2 days on a confluent monolayer) was used, and NGF(Nerve Growth Factor) was added to final concentration of 200 ng/ml. After the cells were grown 2 days in medium where cytosine arabinoside (Ara-C, 100 μM) was added to kill dividing nonneuronal cells, medium was changed to one without Ara-C. The resuspended cells were plated at a density of 1500–1700 neurons/well onto Terasaki plates previously coated with 10 μg/ml poly-D-ornithine.
2) ^45Ca Influx Experiments
DRG nerve cells from the primary culture of 2–3 days were equilibrated by washing 4 times with HEPES (10 mM, pH 7.4)-buffered Ca^2+, Mg^2+-free HBSS (H-ABSS). The solution in each well was removed from the individual well. Medium containing the test compound plus capsaicin (final concentration 0.5 μM) and ^45Ca (final concentration 10 μCi/ml) in H-HBSS was added to each well and incubated at room temperature for 10 min. Terasalki plates were washed six times with H-HBSS and dried in an oven. To each well, 0.3% SDS (10 μl) was added to elute ^45Ca. After the addition of […] of scintillation cocktail into each well, the amount of ^45Ca influx into neuron was measured by counting radioactivity.

Male ICR mice [1] = experiment: Antiinflammatory activity test: TPA-induced mouse ear edema test; assay type: in vivo; conditions: dose 1 mg/ear topical; TPA 2.5 μg; ear weight 24 h after TPA
Procedure: (4) Antiinflammatory Activity Test: TPA(12-O-tetradecanoylphorbol 13-acetate)-induced Mouse Ear Edema Test
Male ICR mice(body weight 25–30 g), 10 animals/group, were treated topically on the right ear with 30 μl of TPA (2.5 μg) solution in acetone and after 15 min. 30 μl of acetone or test compound solution in acetone was applied topically. After six hours, an identical treatment was applied again. After twenty four hours following the treatment of TPA, the animals were sacrificed and ear tissue was dissected using 6 mm-diameter punch. Ear tissue dissected were weighed to the nearest 0.1 mg on an electrobalance. The increased weight of the tissue compared to control group was considered as an index of inflammation. The percent inhibition is defined by the following equation: % inlibition=(C−T)/C×100, wherein C and T represent an increase of ear weight in TPA-treated and TPA+drug-treated group, respectively.

Male ICR mice [2] = experiment: Analgesic activity test: mouse writhing test by inducing with phenyl-p-quinone; assay type: in vivo; conditions: dose 1 mg/kg intraperitoneally 30 min before phenyl-p-quinone; writhes vs control
Procedure: (3) Analgesic Activity Test: Mouse Writhing Test by Inducing with Phenyl-p-quinone
Male ICR mice (mean body weight 25 g) were maintained in a controlled lighting environment (12 h on/12 h off for experiment. Animals received an intraperitoneal injection of 0.3 ml of the chemical irritant phenyl-p-quinone (dissolved in saline containing 5% ethanol to be a dose of 4.5 mg/lkg) and 6 min later, the number of abdominal constrictions was counted in the subsequent 6 min period. Animals (10 animals/group) received 0.2 ml of test compounds solution in vehicle of ethanol/Tween 80/saline (10/10/80) intraperitoneally 30 min before the injection of phenyl-p-quinone. A reduction in the number of writhes responding to the test drug compound relative to the number responding in saline control group was considered to be indicative of an analgesic effect. Analgesic effect was calculated by % inhibition equation (% inhibitio=(C−T)/C×100), wherein C and T represent the number of writhes in control and compound-treated group, respectively (Table 2).

T1 sequence (O35433 whole entry): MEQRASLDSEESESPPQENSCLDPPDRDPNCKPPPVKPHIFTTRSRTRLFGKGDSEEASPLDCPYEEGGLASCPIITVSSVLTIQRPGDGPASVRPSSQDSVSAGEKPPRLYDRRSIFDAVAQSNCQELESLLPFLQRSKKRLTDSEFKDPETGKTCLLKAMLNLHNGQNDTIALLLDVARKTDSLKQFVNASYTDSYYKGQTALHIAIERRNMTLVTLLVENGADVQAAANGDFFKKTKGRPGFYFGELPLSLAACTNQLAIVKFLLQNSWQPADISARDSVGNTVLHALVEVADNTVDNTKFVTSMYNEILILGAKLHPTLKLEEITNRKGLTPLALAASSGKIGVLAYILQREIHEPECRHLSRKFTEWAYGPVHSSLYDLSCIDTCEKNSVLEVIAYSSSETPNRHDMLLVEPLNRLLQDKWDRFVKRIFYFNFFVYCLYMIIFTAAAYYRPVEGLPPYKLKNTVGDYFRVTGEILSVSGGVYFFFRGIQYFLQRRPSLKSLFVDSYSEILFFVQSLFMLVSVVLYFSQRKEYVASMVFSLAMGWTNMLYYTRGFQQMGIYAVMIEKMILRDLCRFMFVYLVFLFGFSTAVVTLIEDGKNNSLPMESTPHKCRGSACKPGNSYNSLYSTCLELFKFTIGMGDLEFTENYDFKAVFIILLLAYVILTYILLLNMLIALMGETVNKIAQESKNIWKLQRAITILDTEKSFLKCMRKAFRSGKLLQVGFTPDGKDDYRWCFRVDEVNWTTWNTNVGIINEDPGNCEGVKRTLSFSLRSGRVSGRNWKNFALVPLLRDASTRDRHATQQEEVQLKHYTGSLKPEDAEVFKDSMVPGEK

## Cc1ccc(CC(CN/C(S)=N/Cc2ccc(NS(C)(=O)=O)cc2)COC(=O)c2ccccc2)cc1C (stereo not shown) [Example 9]
Vanilloid receptor
  IC50: 13000 nM

## CC(C)(C)C(=O)OCC(C/N=C(\S)NCc1ccc(NS(C)(=O)=O)cc1)Cc1ccc(C(C)(C)C)cc1 (stereo not shown) [Example 10]
Vanilloid receptor
  IC50: 2500 nM

## CC(C)(C)c1ccc(CC(CNC(=S)NCc2ccc(NS(C)(=O)=O)cc2)COC(=O)c2ccccc2)cc1 (stereo not shown) [Example 11]
Vanilloid receptor
  IC50: > 50000 nM

## COc1cc(CNC(=S)NCC(COC(=O)C(C)(C)C)Cc2ccc(C)c(C)c2)ccc1NS(C)(=O)=O (stereo not shown) [Example 12]
Male ICR mice [1]
  Anti-inflammatory effect (% Inhibition): 41%
Male ICR mice [2]
  Analgesic effect (% Inhibition): 65%
Vanilloid receptor
  IC50: 680 nM

## COc1cc(CNC(=S)NCC(COC(=O)c2ccccc2)Cc2ccc(C)c(C)c2)ccc1NS(C)(=O)=O (stereo not shown) [Example 13]
Vanilloid receptor
  IC50: 38000 nM

## COc1cc(C/N=C(\S)NCC(COC(=O)c2ccccc2)Cc2ccc(C(C)(C)C)cc2)ccc1NS(C)(=O)=O (stereo not shown) [Example 15]
Vanilloid receptor
  IC50: > 50000 nM

## Cc1ccc(CCC(CNC(=S)NCc2ccc(NS(C)(=O)=O)cc2)COC(=O)C(C)(C)C)cc1C (stereo not shown) [Example 16]
Vanilloid receptor
  IC50: 1100 nM

## CC(C)(C)C(=O)OCC(CCc1ccc(C(C)(C)C)cc1)CNC(=S)NCc1ccc(NS(C)(=O)=O)cc1 (stereo not shown) [Example 17]
Vanilloid receptor
  IC50: 1800 nM
